Laboratory results: patent US10703757B2, “Compounds and methods for CDK8 modulation and indications therefor” (Plexxikon Inc., priority 2016, dated 2020)
pIC50: −log10 of the molar value.

Columns and labels:
[1] = system: CDK8 (TCF/LEF luciferase reporter in HCT116 cells); assay: Cell based TCF/LEF reporter assay (HCT116+TCF/LEF luciferase); details: Homo sapiens, HCT-116, 24 h
From the text: Determine Inhibitor Activity Against CDK8 in Cell Based TCF/LEF Reporter Assay
The colorectal carcinoma cell line HCT116 was stably transduced with lentivirus encoding the TCF/LEF promoter upstream of a luciferase reporter gene (Qiagen) and single cell clones expressing this construct (referred to as HCT116+TCF/LEF) were isolated. HCT116 express endogenous mutant β-catenin^3, resulting in up-regulation of transcription through the TCF/LEF promoter. Expression of the TCF/LEF reporter construct in HCT116 results in constitutive expression of luciferase. Treatment of the cells with inhibitors of components of the β-catenin signaling pathway (such as CDK8) results in decreased expression of luciferase. The assay is performed as follows. The HCT116+TCF/LEF cell line is seeded in a 96 well plate in 50 μL of culture media at 1×10^4 cells/well and incubated at 37° C. overnight. Serial dilutions of compounds (in total volume of 50 μL culture media) are added to the cells and incubated at 37° C. for 24 hours. 4 wells of DMSO treated cells serve as high controls and cells treated with 10 uM of the reference compound CCT251545 (a known CDK8 inhibitor)^4 serve as low controls. The viability of the cells is assayed by the addition of […] reagent (Promega) followed by 30 minute incubation at 37° C. and quantification of the fluorescent signal (Ex400/Em505). The luciferase expression is then assayed by the addition of 25 μL ONE-Glo reagent (Promega) followed by 10 minute incubation at room temperature and quantification of the luminescence signal. The luminescence signal is normalized to the fluorescence signal to correct for any loss in cell viability over the 24 hour compound incubation period. The percentage inhibition at individual concentrations relative to high and low controls is calculated. The data are analyzed by using nonlinear regression to generate IC50 values.

[2] = system: CDK8 (phosphorylation of STAT1 at serine 727 in A549 cells); assay: Cell based Phospho-STAT1 assay (IFNγ-stimulated A549 cells, AlphaLISA); details: Homo sapiens, A549, A549 cells, phospho-STAT1 after IFNγ stimulation
How it was run: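 A549 cells given serial compound dilutions for 1 h at 37 °C, then stimulated with IFNγ at 10 ng/mL final for 30 min. Lysate STAT1 Ser727 phosphorylation measured by AlphaLISA; % inhibition vs stimulated/unstimulated DMSO controls, IC50 by nonlinear regression.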

| SMILES | pIC50 [1] | pIC50 [2] |
| --- | --- | --- |
| N#CC1CC=C(c2c(-c3ccc4c(cnn4CC4(C(=O)O)CC4)c3)cnc3[nH]ccc23)CC1 (stereo not drawn) [Compound P-0108, 1-((5-(4-(4-cyanocyclohex-1-en-1-yl)-1H-pyrrolo[2,3-b]pyridin-5-yl)-1H-indazol-1-yl)methyl)cyclopropane-1-carboxylic acid] | 6.00 to 7.00 | – |
| CCCS(=O)(=O)Nc1ccc2cc(-c3cnn4ccnc(C5CCC(C#N)CC5)c34)ccc2c1 (stereo not drawn) [Compound P-0061, N-(6-(4-((1s,4s)-4-cyanocyclohexyl)pyrazolo[1,5-a]pyrazin-3-yl)naphthalen-2-yl)propane-1-sulfonamide] | 7.00 to 10.00 | 7.00 to 10.00 |
| N#CC1CC=C(c2cccn3ncc(-c4ccc(Cl)cc4)c23)CC1 (stereo not drawn) [Compound P-0188, 4-(3-(4-chlorophenyl)pyrazolo[1,5-a]pyridin-4-yl)cyclohex-3-ene-1-carbonitrile] | 7.00 to 10.00 | 7.00 to 10.00 |
| Cn1cc(C#Cc2cnc3cccc(N4CCC5(CC4)CNC(=O)O5)n23)cn1 [Compound P-0277, 8-(3-((1-methyl-1H-pyrazol-4-yl)ethynyl)imidazo[1,2-a]pyridin-5-yl)-1-oxa-3,8-diazaspiro[4.5]decan-2-one] | 5.00 to 6.00 | 5.00 to 6.00 |
| N#CC1CC=C(c2nccn3ncc(-c4ccc(-c5cnn(CC6(C#N)CC6)c5)cc4)c23)CC1 (stereo not drawn) [Compound P-0096, 4-(3-(4-(1-((1-cyanocyclopropyl)methyl)-1H-pyrazol-4-yl)phenyl)pyrazolo[1,5-a]pyrazin-4-yl)cyclohex-3-ene-1-carbonitrile] | 7.00 to 10.00 | 7.00 to 10.00 |
| N#CC1CCN(c2cccn3ncc(-c4ccc(-n5cccn5)cc4)c23)CC1 [Compound P-0363, 1-(3-(4-(1H-pyrazol-1-yl)phenyl)pyrazolo[1,5-a]pyridin-4-yl)piperidine-4-carbonitrile] | 7.00 to 10.00 | 7.00 to 10.00 |
| N#CC1CC=C(c2nccn3ncc(-c4ccc(-c5cnn(CCF)c5)cc4)c23)CC1 (stereo not drawn) [Compound P-0036, 4-(3-(4-(1-(2-fluoroethyl)-1H-pyrazol-4-yl)phenyl)pyrazolo[1,5-a]pyrazin-4-yl)cyclohex-3-ene-1-carbonitrile] | 7.00 to 10.00 | 7.00 to 10.00 |
| Cc1ccc2cc(-c3cnn4ccnc(C#CC(C)(C)C(N)=O)c34)ccc2n1 [Compound P-0118, 2,2-dimethyl-4-(3-(2-methylquinolin-6-yl)pyrazolo[1,5-a]pyrazin-4-yl)but-3-ynamide] | 7.00 to 10.00 | 7.00 to 10.00 |
| Cn1cc(-c2ccc(-c3cnn4cccc(C#CC5(O)CCC5)c34)cc2)cn1 [Compound P-0310, 1-((3-(4-(1-methyl-1H-pyrazol-4-yl)phenyl)pyrazolo[1,5-a]pyridin-4-yl)ethynyl)cyclobutan-1-ol] | 7.00 to 10.00 | 7.00 to 10.00 |
| N#CC1CC=C(c2nccn3ncc(-c4ccc(OCCN5CCOCC5)cc4)c23)CC1 (stereo not drawn) [Compound P-0085, 4-(3-(4-(2-morpholinoethoxy)phenyl)pyrazolo [1,5-a]pyrazin-4-yl)cyclohex-3-ene-1-carbonitrile] | 7.00 to 10.00 | 7.00 to 10.00 |
| CS(=O)(=O)CCn1cc(-c2ccc(-c3cnn4ccnc(C5CCC(C#N)CC5)c34)cc2)cn1 (stereo not drawn) [Compound P-0015, (1s,4s)-(3-(4-(1-(2-(methylsulfonyl)ethyl)-1H-pyrazol-4-yl)phenyl)pyrazolo[1,5-a]pyrazin-4-yl)cyclohexane-1-carbonitrile] | 7.00 to 10.00 | 7.00 to 10.00 |
| Cc1cc(-c2ccc(-c3cnc4[nH]ccc4c3N3CCC(C#N)CC3)cc2)n[nH]1 [Compound P-0175, 1-(5-(4-(5-methyl-1H-pyrazol-3-yl)phenyl)-1H-pyrrolo[2,3-b]pyridin-4-yl)piperidine-4-carbonitrile] | 7.00 to 10.00 | – |
| COc1ccc(-c2cnn3ccnc(C4=CCC(C#N)CC4)c23)cc1Cl (stereo not drawn) [Compound P-0041, 4-(3-(3-chloro-4-methoxyphenyl)pyrazolo[1,5-a]pyrazin-4-yl)cyclohex-3-ene-1-carbonitrile] | 7.00 to 10.00 | 7.00 to 10.00 |
| COc1ccc2cc(-c3cnn4ccnc(C#CC(C)(C)C(N)=O)c34)ccc2n1 [Compound P-0117, 4-[3-(2-methoxy-6-quinolyl)pyrazolo[1,5-a]pyrazin-4-yl]-2,2-dimethyl-but-3-ynamide] | 7.00 to 10.00 | 7.00 to 10.00 |
| N#CC1CCC(c2nccn3ncc(-c4ccc(-c5cnn(CC6CC6)c5)cc4)c23)CC1 (stereo not drawn) [Compound P-0020, (1s,4s)-4-(3-(4-(1-(cyclopropylmethyl)-1H-pyrazol-4-yl)phenyl)pyrazolo[1,5-a]pyrazin-4-yl)cyclohexane-1-carbonitrile] | 7.00 to 10.00 | 7.00 to 10.00 |
| CC(C)(O)C#Cc1cccn2ncc(-c3ccc(-c4cccnc4)cc3)c12 [Compound P-0237, 2-methyl-4-(3-(4-(pyridin-3-yl)phenyl)pyrazolo[1,5-a]pyridin-4-yl)but-3-yn-2-ol] | 7.00 to 10.00 | 7.00 to 10.00 |
| COc1ccc2cc(-c3cnn4cccc(C#CC(C)(C)O)c34)ccc2n1 [Compound P-0282, 4-(3-(2-methoxyquinolin-6-yl)pyrazolo[1,5-a]pyridin-4-yl)-2-methylbut-3-yn-2-ol] | 6.00 to 7.00 | 6.00 to 7.00 |
| CC(C)(O)Cn1ncc2cc(-c3cnc4[nH]ccc4c3C3=CCC(C#N)CC3)ccc21 (stereo not drawn) [Compound P-0113] | 7.00 to 10.00 | 7.00 to 10.00 |
| N#CC1CC=C(c2c(-c3ccc4c(c3)C(=O)NC4)cnc3[nH]ccc23)CC1 (stereo not drawn) [Compound P-0207, 4-(5-(3-oxoisoindolin-5-yl)-1H-pyrrolo[2,3-b]pyridin-4-yl)cyclohex-3-ene-1-carbonitrile] | 6.00 to 7.00 | 5.00 to 6.00 |
| Cn1ncc2cc(-c3cnc4[nH]ccc4c3C3=CCC(C#N)CC3)ccc21 (stereo not drawn) [Compound P-0358, 4-(5-(1-methyl-1H-indazol-5-yl)-1H-pyrrolo[2,3-b]pyridin-4-yl)cyclohex-3-ene-1-carbonitrile] | 7.00 to 10.00 | 7.00 to 10.00 |
| CC(C)(O)Cn1cc(-c2ccc(-c3cnc4[nH]cc(Cl)c4c3N3CCC(C#N)CC3)cc2)cn1 [Compound P-0204, 1-(3-chloro-5-(4-(1-(2-hydroxy-2-methylpropyl)-1H-pyrazol-4-yl)phenyl)-1H-pyrrolo[2,3-b]pyridin-4-yl)piperidine-4-carbonitrile] | 7.00 to 10.00 | 7.00 to 10.00 |
| N#CC1CCN(c2cccn3ncc(-c4ccc(S(=O)(=O)N5CCCCC5)cc4)c23)CC1 [Compound P-0256, 1-(3-(4-(piperidin-1-ylsulfonyl)phenyl)pyrazolo[1,5-a]pyridin-4-yl)piperidine-4-carbonitrile] | 5.00 to 6.00 | – |
| CC(C)(C#Cc1cccn2ncc(-c3ccc(N4CCOCC4)c(F)c3)c12)C(=O)O [Compound P-0092, 4-(3-(3-fluoro-4-morpholinophenyl)pyrazolo[1,5-a]pyridin-4-yl)-2,2-dimethylbut-3-ynoic acid] | 6.00 to 7.00 | – |
| O=C(O)C1CC=C(c2cccn3ncc(-c4ccc(-n5ccnn5)cc4)c23)CC1 (stereo not drawn) [Compound P-0212, 4-(3-(4-(1H-1,2,3-triazol-1-yl)phenyl)pyrazolo[1,5-a]pyridin-4-yl)cyclohex-3-ene-1-carboxylic acid] | 6.00 to 7.00 | – |
| N#CC1CC=C(c2nccn3ncc(-c4ccc(OCC(F)(F)F)c(F)c4)c23)CC1 (stereo not drawn) [Compound P-0037, 4-(3-(3-fluoro-4-(2,2,2-trifluoro-ethoxy)phenyl)pyrazolo[1,5-a]pyrazin-4-yl)cyclohex-3-ene-1-carbonitrile] | 6.00 to 7.00 | – |
| CC(C)(O)Cn1cc(-c2ccc(-c3cnn4cccc(C#CC(C)(C)C(=O)O)c34)cc2)cn1 [Compound P-0093, 4-(3-(4-(1-(2-hydroxy-2-methylpropyl)-1H-pyrazol-4-yl)phenyl)pyrazolo[1,5-a]pyridin-4-yl)-2,2-dimethylbut-3-ynoic acid] | 6.00 to 7.00 | – |
| N#CC1CCN(c2cccn3ncc(-c4ccc(-c5nc(C(F)(F)F)no5)cc4)c23)CC1 [Compound P-0424, 1-(3-(4-(3-(trifluoromethyl)-1,2,4-oxadiazol-5-yl)phenyl)pyrazolo[1,5-a]pyridin-4-yl)piperidine-4-carbonitrile] | – | 5.00 to 6.00 |
| CC(C)(O)C#Cc1cccn2ncc(-c3ccc(Oc4ccccc4)cc3)c12 [Compound P-0410, 2-methyl-4-(3-(4-phenoxyphenyl)pyrazolo[1,5-a]pyridin-4-yl)but-3-yn-2-ol] | – | 5.00 to 6.00 |
| Cn1ncc2cc(-c3nnc4cccc(C5=CCC(C#N)CC5)n34)ccc21 (stereo not drawn) [Compound P-0345, 4-(3-(1-methyl-1H-indazol-5-yl)-[1,2,4]triazolo[4,3-a]pyridin-5-yl)cyclohex-3-ene-1-carbonitrile] | – | 5.00 to 6.00 |
